The subject of one data set is BAE cells. Nature of the data set: Gene and protein expression in LIF-treated BAE cells (RNA-seq, qRT-PCR, cathepsin L ELISA). The class given is cell-based, bovine. The procedure: VEGF and LIF levels in LN-229 CM samples were determined by a human VEGF ELISA kit (R&D Systems, CAT #DVE00) and a human LIF ELISA kit (Biolegend, CAT #443507) according to manufacturers' instructions, respectively. Cathepsin L levels in BAE cells were measured using a bovine cathepsin L ELISA kit (MyBioSource, Inc, CAT #MBS2887609) per manufacturer's instructions.
(§1) BCE and BAE cells, after the indicated treatments, were lysed with Trizol reagent (Invitrogen, CAT #15596026) and subjected to RNA extraction following manufacturer's instructions. RNA concentrations were determined with Nanodrop 2000 (ThermoFisher Scientific) and 1 μg of total RNAs were reverse-transcribed to cDNAs using the High-Capacity cDNA Reverse Transcription Kit (Applied Biosystems, CAT #4368814). Equal amounts (generally 10 ng/reaction) of cDNAs were subjected to qRT-PCR analyses using the TaqMan Fast Advanced Master Mix (Applied Biosystems, CAT #4444557) and the ViiA7 Real-time PCR system. Relative mRNA levels of the examined genes were normalized to the internal control RPLP0 (Ribosomal Protein Lateral Stalk Subunit P0), determined by comparing with control sample group, and reported as fold changes. TaqMan gene expression assay probes were used: bovine RPLP0 (Bt03218086_ml), bovine STAT3 (Bt03259865_ml), bovine CTSL1 (Bt03257307_ml and Bt03257309_ml), bovine CTSB (Bt03259161_ml), bovine MYC (Bt03260377_ml), bovine JunB (Bt03246919_s1), bovine CCNA2 (Bt03240503_g1), bovine CCNB1 (Bt03237853_g1), and bovine PIM1 (Bt03212957_ml). The experiment was carried out in triplicate and repeated three times.
(In general: Quantitative PCR measures a nucleic acid by following its amplification.)

A further data set concerns BCE cells. The data set is described as follows: Gene expression in LIF-treated BCE cells (RNA-seq, qRT-PCR). The format is cell-based, bovine. The procedure: as §1
The subject of another data set is guinea pig skin. Nature of the data set: Vessel permeability in guinea pig skin (Evans blue). The format is in vivo. The note with it: intradermal 1, 5, 25, 100, 200 ng per injection site. The procedure: In FIG. 5A, Hairless male guinea pigs (Crl: HA-Hrhr/IAF, 450-500 g, Charles River Laboratories) were anesthetized by intraperitoneal (i.p.) administration of xylazine (5 mg/kg) and ketamine (75 mg/kg). The animals then received an intravenous injection (penile vein) of 1 ml of 1% Evans blue dye. After 15 min, intradermal injections (0.05 ml/per site) of different doses (1, 5, 25, 100, 200 ng per injection site) of rhLIF in PBS were administrated into the area of trunk posterior to the shoulder. 0.05 ml of PBS and 25 ng of VEGF in 0.05 ml of PBS were injected as negative and positive controls. 30 min after the intradermal injections, animals were euthanized by i.p. injection of pentobarbital (200 mg/kg). Skin tissues were dissected from the connective tissues and photographed, n=2. In FIG. 5B, Vascular leakage is shown in mouse retina. LIF (10 ng) or VEGF (100 ng) was injected in the vitreous cavity (0.1% BSA/PBS as control). TRITC-dextran was used to indicate the vascular leakage. Retinal vasculature was labeled by FITC-lectin, n=5.

Here are results for one substance from patent publication US20220105157A1, “Compositions and Methods for Promoting Angiogenesis in the Eye” (The Regents of the University of California, priority 2019, published 2022).

With “LIF: recombinant human leukemia inhibitory factor, a member of the IL-6 family of cytokines”, the “upregulation of IGFBP3” value is listed as “approximately 8 fold” in the data set on BAE cells (BAE cells incubated with LIF for 6 hours, RNA-seq, confirmed by qRT-PCR) and “not in BCE cells” in the data set with BCE cells (BCE cells incubated with LIF for 6 hours, RNA-seq). For the same substance, in the data set on BAE cells (BAE cells, LIF 10 ng/ml 24 hours, qRT-PCR), the “cyclin A/B expression” value is “downregulation”. Besides, the “CTSB (cathepsin B) levels” value with BAE cells (BAE cells, LIF 24 hours) was “not CTSB”. Moreover, the “CTSL (cathepsin L) mRNA and protein levels” value in the data set with BAE cells (BAE cells, LIF 24 hours) is recorded as “dramatically upregulated”. In addition, in the data set on BAE cells (BAE cells, LIF treatment), the PIM1 expression entry is “induction”. For the same substance, in the data set on BCE cells (BCE cells, LIF treatment), the MYC expression entry is on record as “upregulation”. Further, in the data set on BCE cells (BCE cells, vehicle or LIF, qRT-PCR), the “cathepsin L mRNA (CTSL) levels” value is reported as “not detectable”. Moreover, the “vascular permeability in guinea pig skin” value in the data set with guinea pig skin is “does not induce vascular permeability”.
